# Assay results taken from publication PMC9299836 (eLife, 2022).
# Target: mGluR2 (Mus musculus, UniProt Q14BI2, A548F)
# Experiment: smFRET of azi-CRD: cross-correlation of donor and acceptor intensities (CRD dynamics) and HMM transition density plots;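 further: single detergent-solubilized receptors captured on antibody-coated flow cells via C-terminal FLAG-tag, imaged by smFRET, donor and acceptor intensity traces from three independent biological replicates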
# Settings: for CRD dynamics by cross-correlation of donor and acceptor intensities: azi-CRD
# Sequence of mGluR2 (Q14BI2 19-872 A548F): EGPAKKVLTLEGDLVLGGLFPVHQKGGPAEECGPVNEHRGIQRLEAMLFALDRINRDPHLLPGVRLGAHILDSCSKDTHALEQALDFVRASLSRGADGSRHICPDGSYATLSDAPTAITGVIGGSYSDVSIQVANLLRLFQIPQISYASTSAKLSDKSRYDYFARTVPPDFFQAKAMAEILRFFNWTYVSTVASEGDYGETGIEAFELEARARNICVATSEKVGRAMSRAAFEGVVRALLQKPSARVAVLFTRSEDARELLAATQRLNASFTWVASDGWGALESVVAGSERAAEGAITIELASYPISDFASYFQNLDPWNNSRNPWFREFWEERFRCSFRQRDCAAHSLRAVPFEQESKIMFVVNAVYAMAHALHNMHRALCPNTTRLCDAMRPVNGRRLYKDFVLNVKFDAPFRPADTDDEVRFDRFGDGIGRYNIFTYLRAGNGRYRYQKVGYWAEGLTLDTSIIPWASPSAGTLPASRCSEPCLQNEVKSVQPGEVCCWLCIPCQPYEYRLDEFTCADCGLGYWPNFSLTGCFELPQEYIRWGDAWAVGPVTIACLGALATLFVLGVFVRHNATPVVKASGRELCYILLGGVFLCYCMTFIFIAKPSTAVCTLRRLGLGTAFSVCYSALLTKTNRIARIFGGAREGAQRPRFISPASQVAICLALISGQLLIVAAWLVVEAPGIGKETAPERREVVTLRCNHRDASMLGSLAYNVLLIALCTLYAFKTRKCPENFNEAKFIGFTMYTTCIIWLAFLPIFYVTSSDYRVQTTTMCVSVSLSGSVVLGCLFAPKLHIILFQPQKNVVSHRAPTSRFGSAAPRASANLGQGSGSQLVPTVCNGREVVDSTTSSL
substance,measurement,setting,value
MNI-137,"Cross Correlation, Mean","0μM Glutamate + GPT/Pyruvate + 5μM MNI-137, Time 0.2 s",-0.028
same,"Cross Correlation, Mean","0μM Glutamate + GPT/Pyruvate + 5μM MNI-137, Time 0.25 s",-0.03232
same,"Cross Correlation, Mean","0μM Glutamate + GPT/Pyruvate + 5μM MNI-137, Time 0.3 s",-0.03245
same,"Cross Correlation, Mean","0μM Glutamate + GPT/Pyruvate + 5μM MNI-137, Time 0.35 s",-0.03285
same,"Cross Correlation, Mean","0μM Glutamate + GPT/Pyruvate + 5μM MNI-137, Time 0.4 s",-0.02992
same,"Cross Correlation, Mean","0μM Glutamate + GPT/Pyruvate + 5μM MNI-137, Time 0.45 s",-0.02563
same,"Cross Correlation, Mean","0μM Glutamate + GPT/Pyruvate + 5μM MNI-137, Time 0.5 s",-0.0232
same,"Cross Correlation, Mean","0μM Glutamate + GPT/Pyruvate + 5μM MNI-137, Time 0.55 s",-0.0254
same,"Cross Correlation, Mean","0μM Glutamate + GPT/Pyruvate + 5μM MNI-137, Time 0.6 s",-0.02539
same,"Cross Correlation, Mean","0μM Glutamate + GPT/Pyruvate + 5μM MNI-137, Time 0.65 s",-0.02363
same,"Cross Correlation, Mean","0μM Glutamate + GPT/Pyruvate + 5μM MNI-137, Time 0.7 s",-0.02361
same,"Cross Correlation, Mean","0μM Glutamate + GPT/Pyruvate + 5μM MNI-137, Time 0.8 s",-0.02074
same,"Cross Correlation, Mean","0μM Glutamate + GPT/Pyruvate + 5μM MNI-137, Time 0.85 s",-0.0233
same,"Cross Correlation, Mean","0μM Glutamate + GPT/Pyruvate + 5μM MNI-137, Time 0.9 s",-0.02522
same,"Cross Correlation, Mean","0μM Glutamate + GPT/Pyruvate + 5μM MNI-137, Time 0.95 s",-0.02254
same,"Cross Correlation, Mean","0μM Glutamate + GPT/Pyruvate + 5μM MNI-137, Time 1 s",-0.02263
same,"Cross Correlation, Mean","0μM Glutamate + GPT/Pyruvate + 5μM MNI-137, Time 1.05 s",-0.01654
same,"Cross Correlation, Mean","0μM Glutamate + GPT/Pyruvate + 5μM MNI-137, Time 1.1 s",-0.01694
same,"Cross Correlation, Mean","0μM Glutamate + GPT/Pyruvate + 5μM MNI-137, Time 1.15 s",-0.0245
same,"Cross Correlation, Mean","0μM Glutamate + GPT/Pyruvate + 5μM MNI-137, Time 1.2 s",-0.02011
same,"Cross Correlation, Mean","0μM Glutamate + GPT/Pyruvate + 5μM MNI-137, Time 1.25 s",-0.02479
same,"Cross Correlation, Mean","0μM Glutamate + GPT/Pyruvate + 5μM MNI-137, Time 1.3 s",-0.01941
same,"Cross Correlation, Mean","0μM Glutamate + GPT/Pyruvate + 5μM MNI-137, Time 1.35 s",-0.01897
same,"Cross Correlation, Mean","0μM Glutamate + GPT/Pyruvate + 5μM MNI-137, Time 1.4 s",-0.02381
same,"Cross Correlation, Mean","0μM Glutamate + GPT/Pyruvate + 5μM MNI-137, Time 1.45 s",-0.01493
same,"Cross Correlation, Mean","0μM Glutamate + GPT/Pyruvate + 5μM MNI-137, Time 1.5 s",-0.01697
same,"Cross Correlation, Mean","0μM Glutamate + GPT/Pyruvate + 5μM MNI-137, Time 1.6 s",-0.01709
same,"Cross Correlation, Mean","0μM Glutamate + GPT/Pyruvate + 5μM MNI-137, Time 1.65 s",-0.01348
same,"Cross Correlation, Mean","0μM Glutamate + GPT/Pyruvate + 5μM MNI-137, Time 1.7 s",-0.01427
same,"Cross Correlation, Mean","0μM Glutamate + GPT/Pyruvate + 5μM MNI-137, Time 1.75 s",-0.0161
same,"Cross Correlation, Mean","0μM Glutamate + GPT/Pyruvate + 5μM MNI-137, Time 1.8 s",-0.01106
same,"Cross Correlation, Mean","0μM Glutamate + GPT/Pyruvate + 5μM MNI-137, Time 1.85 s",-0.00832
same,"Cross Correlation, Mean","0μM Glutamate + GPT/Pyruvate + 5μM MNI-137, Time 1.9 s",-0.01466
same,"Cross Correlation, Mean","15μM Glutamate + 5μM MNI-137, Time 0.2 s",-0.09437
same,"Cross Correlation, Mean","15μM Glutamate + 5μM MNI-137, Time 0.25 s",-0.08281
same,"Cross Correlation, Mean","15μM Glutamate + 5μM MNI-137, Time 0.3 s",-0.0732
same,"Cross Correlation, Mean","15μM Glutamate + 5μM MNI-137, Time 0.35 s",-0.06697
same,"Cross Correlation, Mean","15μM Glutamate + 5μM MNI-137, Time 0.4 s",-0.05965
same,"Cross Correlation, Mean","15μM Glutamate + 5μM MNI-137, Time 0.45 s",-0.05857
same,"Cross Correlation, Mean","15μM Glutamate + 5μM MNI-137, Time 0.5 s",-0.05707
same,"Cross Correlation, Mean","15μM Glutamate + 5μM MNI-137, Time 0.55 s",-0.05428
same,"Cross Correlation, Mean","15μM Glutamate + 5μM MNI-137, Time 0.6 s",-0.04785
same,"Cross Correlation, Mean","15μM Glutamate + 5μM MNI-137, Time 0.65 s",-0.04876
same,"Cross Correlation, Mean","15μM Glutamate + 5μM MNI-137, Time 0.7 s",-0.04192
same,"Cross Correlation, Mean","15μM Glutamate + 5μM MNI-137, Time 0.75 s",-0.0438
same,"Cross Correlation, Mean","15μM Glutamate + 5μM MNI-137, Time 0.8 s",-0.04286
same,"Cross Correlation, Mean","15μM Glutamate + 5μM MNI-137, Time 0.85 s",-0.04147
same,"Cross Correlation, Mean","15μM Glutamate + 5μM MNI-137, Time 0.9 s",-0.0389
same,"Cross Correlation, Mean","15μM Glutamate + 5μM MNI-137, Time 0.95 s",-0.03855
same,"Cross Correlation, Mean","15μM Glutamate + 5μM MNI-137, Time 1 s",-0.03542
same,"Cross Correlation, Mean","15μM Glutamate + 5μM MNI-137, Time 1.05 s",-0.03118
same,"Cross Correlation, Mean","15μM Glutamate + 5μM MNI-137, Time 1.1 s",-0.03249
same,"Cross Correlation, Mean","15μM Glutamate + 5μM MNI-137, Time 1.15 s",-0.02794
same,"Cross Correlation, Mean","15μM Glutamate + 5μM MNI-137, Time 1.2 s",-0.03365
same,"Cross Correlation, Mean","15μM Glutamate + 5μM MNI-137, Time 1.25 s",-0.03207
same,"Cross Correlation, Mean","15μM Glutamate + 5μM MNI-137, Time 1.3 s",-0.02844
same,"Cross Correlation, Mean","15μM Glutamate + 5μM MNI-137, Time 1.35 s",-0.02868
same,"Cross Correlation, Mean","15μM Glutamate + 5μM MNI-137, Time 1.4 s",-0.02437
same,"Cross Correlation, Mean","15μM Glutamate + 5μM MNI-137, Time 1.45 s",-0.02342
same,"Cross Correlation, Mean","15μM Glutamate + 5μM MNI-137, Time 1.55 s",-0.02529
same,"Cross Correlation, Mean","15μM Glutamate + 5μM MNI-137, Time 1.6 s",-0.02454
same,"Cross Correlation, Mean","15μM Glutamate + 5μM MNI-137, Time 1.65 s",-0.02035
same,"Cross Correlation, Mean","15μM Glutamate + 5μM MNI-137, Time 1.75 s",-0.02381
same,"Cross Correlation, Mean","15μM Glutamate + 5μM MNI-137, Time 1.8 s",-0.02039
same,"Cross Correlation, Mean","15μM Glutamate + 5μM MNI-137, Time 1.85 s",-0.02364
same,"Cross Correlation, Mean","15μM Glutamate + 5μM MNI-137, Time 1.9 s",-0.02018
same,"Cross Correlation, Mean","15μM Glutamate + 5μM MNI-137, Time 1.95 s",-0.01877
same,"Cross Correlation, Mean","1000μM Glutamate + 5μM MNI-137, Time 0.2 s",-0.2112
same,"Cross Correlation, Mean","1000μM Glutamate + 5μM MNI-137, Time 0.25 s",-0.1919
same,"Cross Correlation, Mean","1000μM Glutamate + 5μM MNI-137, Time 0.3 s",-0.1758
same,"Cross Correlation, Mean","1000μM Glutamate + 5μM MNI-137, Time 0.35 s",-0.1629
same,"Cross Correlation, Mean","1000μM Glutamate + 5μM MNI-137, Time 0.4 s",-0.1514
same,"Cross Correlation, Mean","1000μM Glutamate + 5μM MNI-137, Time 0.45 s",-0.1426
same,"Cross Correlation, Mean","1000μM Glutamate + 5μM MNI-137, Time 0.5 s",-0.1307
same,"Cross Correlation, Mean","1000μM Glutamate + 5μM MNI-137, Time 0.55 s",-0.1241
same,"Cross Correlation, Mean","1000μM Glutamate + 5μM MNI-137, Time 0.6 s",-0.1177
same,"Cross Correlation, Mean","1000μM Glutamate + 5μM MNI-137, Time 0.65 s",-0.1093
same,"Cross Correlation, Mean","1000μM Glutamate + 5μM MNI-137, Time 0.7 s",-0.1013
same,"Cross Correlation, Mean","1000μM Glutamate + 5μM MNI-137, Time 0.75 s",-0.09952
same,"Cross Correlation, Mean","1000μM Glutamate + 5μM MNI-137, Time 0.8 s",-0.09295
same,"Cross Correlation, Mean","1000μM Glutamate + 5μM MNI-137, Time 0.85 s",-0.08726
same,"Cross Correlation, Mean","1000μM Glutamate + 5μM MNI-137, Time 0.9 s",-0.08538
same,"Cross Correlation, Mean","1000μM Glutamate + 5μM MNI-137, Time 0.95 s",-0.07938
same,"Cross Correlation, Mean","1000μM Glutamate + 5μM MNI-137, Time 1 s",-0.07503
same,"Cross Correlation, Mean","1000μM Glutamate + 5μM MNI-137, Time 1.05 s",-0.07213
same,"Cross Correlation, Mean","1000μM Glutamate + 5μM MNI-137, Time 1.1 s",-0.06374
same,"Cross Correlation, Mean","1000μM Glutamate + 5μM MNI-137, Time 1.15 s",-0.06369
same,"Cross Correlation, Mean","1000μM Glutamate + 5μM MNI-137, Time 1.2 s",-0.0627
same,"Cross Correlation, Mean","1000μM Glutamate + 5μM MNI-137, Time 1.3 s",-0.05443
same,"Cross Correlation, Mean","1000μM Glutamate + 5μM MNI-137, Time 1.35 s",-0.05075
same,"Cross Correlation, Mean","1000μM Glutamate + 5μM MNI-137, Time 1.4 s",-0.05008
same,"Cross Correlation, Mean","1000μM Glutamate + 5μM MNI-137, Time 1.45 s",-0.0474
same,"Cross Correlation, Mean","1000μM Glutamate + 5μM MNI-137, Time 1.5 s",-0.04472
same,"Cross Correlation, Mean","1000μM Glutamate + 5μM MNI-137, Time 1.55 s",-0.04463
same,"Cross Correlation, Mean","1000μM Glutamate + 5μM MNI-137, Time 1.65 s",-0.03966
same,"Cross Correlation, Mean","1000μM Glutamate + 5μM MNI-137, Time 1.7 s",-0.03894
same,"Cross Correlation, Mean","1000μM Glutamate + 5μM MNI-137, Time 1.75 s",-0.03942
same,"Cross Correlation, Mean","1000μM Glutamate + 5μM MNI-137, Time 1.8 s",-0.03907
same,"Cross Correlation, Mean","1000μM Glutamate + 5μM MNI-137, Time 1.9 s",-0.0321
same,"Cross Correlation, Mean","1000μM Glutamate + 5μM MNI-137, Time 1.95 s",-0.034
same,CRD dynamics by cross-correlation of donor and acceptor intensities,5 μM modulator with 15 μM and 1 mM glutamate,glutamate concentration-dependent increase in the CRD dynamics
same,CRD dynamics by cross-correlation of donor and acceptor intensities,"5 μM modulator, absence of glutamate",reduced CRD dynamics
